Measured values as given in PubChem BioAssay (NCI).
Where “and” joins values, the source holds several entries; their conditions need not be identical. Identical values can stand only once.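 Exposure lasted 48 hours, with cells grown in 96-well plates and compounds tested at five concentrations. GI50: concentration for 50% inhibition of growth. TGI: concentration producing complete growth inhibition.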

Experiments:
Experiment in all cases: NCI-60 cell line screen, 48 h
HCT-116 colon = tested on: HCT-116 colon
TK-10 renal = tested on: TK-10 renal
MCF7 breast = tested on: MCF7 breast
EKVX NSCLC = tested on: EKVX NSCLC
LOX IMVI melanoma = tested on: LOX IMVI melanoma
NCI-H23 lung = tested on: NCI-H23 lung
BT-549 breast = tested on: BT-549 breast
DU-145 prostate = tested on: DU-145 prostate
OVCAR-8 ovarian = tested on: OVCAR-8 ovarian
UACC-62 melanoma = tested on: UACC-62 melanoma

Row | SMILES | GI50 (HCT-116 colon) | TGI (HCT-116 colon) | GI50 (TK-10 renal) | TGI (TK-10 renal) | GI50 (MCF7 breast) | TGI (MCF7 breast) | GI50 (EKVX NSCLC) | TGI (EKVX NSCLC) | GI50 (LOX IMVI melanoma) | TGI (LOX IMVI melanoma) | GI50 (NCI-H23 lung) | TGI (NCI-H23 lung) | GI50 (BT-549 breast) | TGI (BT-549 breast) | GI50 (DU-145 prostate) | TGI (DU-145 prostate) | GI50 (OVCAR-8 ovarian) | TGI (OVCAR-8 ovarian) | GI50 (UACC-62 melanoma) | TGI (UACC-62 melanoma)
1 | Clc1cc2c(nn1)Nc1ccccc1S2 | > 100 µM | > 100 µM | > 100 µM | > 100 µM | > 100 µM | > 100 µM | 35.6 µM | > 100 µM | > 100 µM | > 100 µM | > 100 µM | > 100 µM | > 100 µM | > 100 µM | > 100 µM | > 100 µM | > 100 µM | > 100 µM | > 100 µM | > 100 µM
2 | COc1ccc(CNC(C)C(=O)O)cc1 (stereo not drawn) |  | > 100 µM |  | > 100 µM |  | > 100 µM |  | > 100 µM |  | > 100 µM |  | > 100 µM |  | > 100 µM |  | > 100 µM |  | > 100 µM |  | > 100 µM
3 | Nc1nc2c(nnn2C2OC(CO)C(O)C2O)c(=O)[nH]1 (stereo not drawn) | 2.16 µM | > 100 µM | 2.05 µM | 32.6 µM | 1.42 µM | > 100 µM | 14.1 µM | > 100 µM | 0.475 µM | > 100 µM | 1.54 µM | > 100 µM | 2.41 µM | > 26.3 µM | 0.371 µM | > 78.8 µM | 1.18 µM | > 100 µM | 1.14 µM | 12.9 µM
4 | CSc1ccc2c(c1)N(CCC1CCCCN1C)c1ccccc1S2 (stereo not drawn) | 5.58 µM and 3.3 µM | 19 µM and 12.9 µM | 13.8 µM and 4.11 µM | 28.5 µM and 13.4 µM | 5.63 µM and 2.2 µM | 21.7 µM and 4.48 µM | 7.93 µM and 8.06 µM | 23.5 µM and 22.7 µM | 3.44 µM and 1.78 µM | 14.8 µM and 3.34 µM | 10.3 µM and 8.49 µM | 24 µM and 22.7 µM | 12.7 µM and 3.23 µM | 27.7 µM and 10.4 µM | 6.06 µM and 4.15 µM | 17.9 µM and 14.2 µM | 11.9 µM and 10.3 µM | 27.5 µM and 29.3 µM | 3.16 µM and 3.05 µM | 13.6 µM and 7.13 µM
5 | Cc1[nH]c(C(=O)Nc2ccccc2OC2CCNCC2)c(Cl)c1Cl | 0.837 µM | 1.59 µM | 0.841 µM | 1.62 µM | 0.882 µM | 1.68 µM | 1.09 µM | 3.86 µM | 0.882 µM | 1.61 µM | 1.52 µM | 5.64 µM | 0.895 µM | 1.7 µM | 1.05 µM | 2.04 µM | 1.07 µM | 2.4 µM | 0.895 µM | 1.6 µM
6 | Cc1cc2nc3ccc(=[N+](C)C)cc-3sc2cc1N | 0.226 µM and 0.232 µM | 1.2 µM and 5.03 µM and 0.98 µM | 2.65 µM and 2.75 µM | 7.01 µM and 36.8 µM and 8.19 µM | 0.326 µM and 0.405 µM | 1.87 µM and 6.05 µM and 2.79 µM | 2.12 µM and 1.72 µM | 9.09 µM and 17.2 µM and 8.02 µM | 0.27 µM and 0.301 µM | 1.37 µM and 8.39 µM and 1.4 µM | 0.388 µM and 0.381 µM | 2.78 µM and 9.3 µM and 2.51 µM | 2.75 µM and 2.09 µM | 19.7 µM and 25.2 µM and 18.2 µM | 1.19 µM and 1.69 µM |  | 0.27 µM and 0.8 µM | 1.99 µM and 7.22 µM and 7.3 µM | 0.541 µM and 1.07 µM | 2.21 µM and 5.49 µM and 4.52 µM
7 | O=C(N=Nc1c(O)[nH]c2ccccc12)c1oc2ccccc2c1CN1CCN(c2ccccc2)CC1 | 1.55 µM | 5.34 µM | 1.05 µM | 3.58 µM | 1.43 µM | 5.89 µM | 1.91 µM | 10.3 µM | 2.04 µM | 7.84 µM | 2.01 µM | 8.73 µM | 5.81 µM | 21 µM | 1.22 µM | 3.27 µM | 1.66 µM | 13.4 µM | 2.38 µM | 10 µM
8 | COc1ccc2c(c1)C1OCCNC1CC2 (stereo not drawn) |  | > 100 µM |  | > 100 µM |  | > 100 µM |  | > 100 µM |  | > 100 µM |  | > 100 µM |  | > 100 µM |  | > 100 µM |  | > 100 µM |  | > 100 µM
9 | NC(=S)N/N=C/c1ccc(N)cn1 |  | > 10 µM |  | > 10 µM |  | > 10 µM |  | > 10 µM |  | > 10 µM |  | > 8.9 µM |  | > 10 µM |  | 7.76 µM |  | > 10 µM |  | > 10 µM
10 | CC[C@@H](C(=O)[C@H](C)[C@H](O)[C@@H](C)[C@H]1O[C@H]([C@@H](CC)C(=O)O)CC[C@H]1C)C1O[C@]2(C=C[C@@H](O)[C@]3(CC[C@@](C)([C@H]4CC[C@](O)(CC)[C@H](C)O4)O3)O2)[C@H](C)C[C@@H]1C (stereo partly drawn) | 0.722 µM | 35.7 µM | 1.68 µM | 83.1 µM | 0.148 µM | 11.9 µM | 0.362 µM | 17.5 µM | 0.706 µM | 6.56 µM | 0.296 µM | 7.24 µM | 0.239 µM | 8.63 µM | 1.06 µM | 29.3 µM | 1.6 µM | > 100 µM | 1.05 µM | 2.28 µM
11 | C[N+](C)(CCCCCC[N+](C)(C)CCCN1C(=O)c2cc3ccccc3cc2C1=O)CCCN1C(=O)c2cc3ccccc3cc2C1=O | > 37.5 µM | > 37.5 µM | > 37.5 µM | > 37.5 µM | > 37.5 µM | > 37.5 µM | > 37.5 µM | > 37.5 µM | > 37.5 µM | > 37.5 µM | > 37.5 µM | > 37.5 µM | > 37.5 µM | > 37.5 µM | > 37.5 µM | > 37.5 µM | > 37.5 µM | > 37.5 µM | > 37.5 µM | > 37.5 µM
12 | O=C1C(=O)c2ccccc2C(O)=C1CCCc1ccc(C2CCCC2)cc1 | 3.55 µM | 13.2 µM | 6.99 µM | 34.1 µM | 4.21 µM | 21.1 µM | 11.7 µM | 64.7 µM | 3.16 µM | 9.22 µM | 5.19 µM | 22.6 µM | 10.5 µM | 48.6 µM | 6.9 µM | 54.9 µM | 5.8 µM | 60 µM | 3.73 µM | 18.5 µM
13 | c1cc(CSSCc2ccncc2)ccn1 |  | > 100 µM |  | > 100 µM |  | > 100 µM |  | > 100 µM |  | > 100 µM |  | > 93.2 µM |  | > 100 µM |  | > 66.4 µM |  | > 100 µM |  | > 100 µM
14 | COC(C(=O)C(O)C(C)O)C1Cc2cc3cc(OC4CC(OC5CC(O)C(O)C(C)O5)C(O)C(C)O4)c(C)c(O)c3c(O)c2C(=O)C1OC1CC(OC2CC(O)C(OC3CC(C)(O)C(O)C(C)O3)C(C)O2)C(O)C(C)O1 (stereo not drawn) | 0.0112 µg/mL and 0.015 µg/mL |  | 0.0252 µg/mL and 0.295 µg/mL |  | 0.00053 µg/mL | 0.73 µg/mL | 0.0188 µg/mL and 0.000265 µg/mL |  | 0.00217 µg/mL | 15 µg/mL | 0.0112 µg/mL and 0.000748 µg/mL |  | 0.015 µg/mL | 0.0739 µg/mL | 0.0274 µg/mL and 0.0435 µg/mL | 112 µg/mL and 127 µg/mL | 0.0112 µg/mL and 0.000822 µg/mL |  | 0.0112 µg/mL and 0.00054 µg/mL | 
